Data from ChEMBL document CHEMBL1157257, “Bioactive ent-clerodane diterpenoids from the aerial parts of Baccharis gaudichaudiana” (2006).
Calls of active or inactive are those of the source. The rule behind the calls is not given here.

Assays:
[1] = tested on: PC-12; test: Enhancement of NGF-induced neurite outgrowth in rat PC12D cells at 10 to 100 umol after 48 hrs by phase-contrast microscopy; type: functional, cell-based
[2] = tested on: PC-12; test: Effect on neurite outgrowth from rat PC12D cells at 10 to 100 umol after 48 hrs by phase-contrast microscopy; type: functional, cell-based
[3] = tested on: PC-12; test: Enhancement of 2 ng/mL NGF-induced neurite outgrowth in rat PC12D cells at 100 umol after 48 hrs by phase-contrast microscopy relative to 50 ng/mL NGF alone; type: functional

SMILES | Activity [1] | Activity [2] | Activity [3] [%]
COC(=O)CC(CO)CC[C@@]1(C)[C@H](C)C(=O)C[C@@]23COC(=O)C2=CCC[C@@H]31 (stereo not given in full) | inactive |  | 
CO[C@@H]1C[C@H](CC[C@@]2(C)[C@H](C)CC[C@@]3(C)C(C(=O)O)=CCC[C@H]23)CO1 |  | inactive | 53
CO[C@H]1C[C@H](CC[C@@]2(C)[C@H](C)CC[C@@]3(C)C(C(=O)O)=CCC[C@H]23)CO1 |  | inactive | 49
